Data on 27 compounds can be found in US9056876B2, “Substituted 1H-pyrazolo[3′,4′,4,5]thieno[2,3-b]pyridin-3-amine analogs as positive allosteric modulators of the muscarinic acetylcholine receptor M4” (VANDERBILT UNIVERSITY, priority 2011, dated 2015).

For the experiment, the target named is T1, mAChR M4 (UniProt P08173).
T1 construct: hM1 and hM4 cDNAs were purchased from Missouri S&T cDNA Resource
T1 sequence (P08173 1-479): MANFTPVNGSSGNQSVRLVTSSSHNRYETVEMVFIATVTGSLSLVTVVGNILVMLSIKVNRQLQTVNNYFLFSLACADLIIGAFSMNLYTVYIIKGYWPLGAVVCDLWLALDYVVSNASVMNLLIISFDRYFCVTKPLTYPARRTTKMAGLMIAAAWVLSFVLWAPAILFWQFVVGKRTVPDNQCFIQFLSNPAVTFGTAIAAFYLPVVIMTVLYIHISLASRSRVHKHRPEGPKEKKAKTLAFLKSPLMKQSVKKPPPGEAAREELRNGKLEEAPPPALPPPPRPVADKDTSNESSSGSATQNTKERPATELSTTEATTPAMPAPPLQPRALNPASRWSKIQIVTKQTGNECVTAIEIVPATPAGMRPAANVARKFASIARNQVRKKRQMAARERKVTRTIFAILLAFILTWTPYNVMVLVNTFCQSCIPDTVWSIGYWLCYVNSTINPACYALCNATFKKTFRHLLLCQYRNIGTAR
The experiment is described as follows: mAChR M4 cell-based functional assay (calcium mobilization, Fluo-4, FDSS). Particulars: for Emax (%)*: % ACh maximum at 30 μM; for pEC50: positive allosteric modulator activity, EC20 acetylcholine response; for pEC50 / EC50: CHO-K1 cells; for EC50: positive allosteric modulator activity: concentration-dependent increase in the EC20 acetylcholine response, >10 μM estimated for low potency (no plateau). The gist of the method: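 CHO-K1 cells stably expressing hM4 or rM4 with chimeric Gqi5, loaded with Fluo-4 AM for 50 min at 37° C. Calcium read on FDSS 6000 over 300 s: compound added at 4 s, acetylcholine EC20 at 144 s and EC80 at 230 s. Agonist, PAM (EC20 increase) and antagonist (EC80 decrease) values fitted by four-parameter logistic.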

Consider `Cc1cc(C)c2c(n1)sc1c(NCc3sc(C)nc3C)nn(C)c12` [Compound 99, N-((2,4-dimethylthiazol-5-yl)methyl)-1,6,8-trimethyl-1H-pyrazolo[3′,4′:4,5]thieno[2,3-b]pyridin-3-amine], for which the “Emax (%)*” value is 66%; the pEC50 (in general, the EC50 on a negative log10 scale, so that one unit is a factor of ten) stood at 7.03; the EC50 (commonly the concentration that produces a half-maximal response) is 0.093 µM.

On to `Cc1cc(C)c2c(n1)sc1c(NC3CCCNC3)n[nH]c12` (centres unmarked) [Compound 136, 6,8-dimethyl-N-(piperidin-3-yl)-1H-pyrazolo[3′,4′:4,5]thieno[2,3-b]pyridin-3-amine], for which the pEC50 was below 5.00 and the EC50 is above 10 µM.

For `Cc1ccnc2sc3c(NCC4CC4)nn(C)c3c12` [Compound 160, N-(cyclopropylmethyl)-1,8-dimethyl-1H-pyrazolo[3′,4′:4,5]thieno[2,3-b]pyridin-3-amine], the negative-log EC50 (pEC50) was below 5.00 and the 50% effective concentration (EC50) was above 10 µM.

Take `COc1ccc(CNc2nn(C)c3c2sc2nccc(C)c23)cc1` [Compound 63, N-(4-methoxybenzyl)-1,8-dimethyl-1H-pyrazolo[3′,4′:4,5]thieno[2,3-b]pyridin-3-amine]: the “Emax (%)*” value turned out to be 80%, the negative-log EC50 (pEC50) is listed as 5.77 and the EC50 was 1.7 µM.

For `COc1ccc(CNc2n[nH]c3c2sc2nc(C)cc(C)c23)cc1` [Compound 6, N-(4-methoxybenzyl)-6,8-dimethyl-1H-pyrazolo[3′,4′:4,5]thieno[2,3-b]pyridin-3-amine], the “Emax (%)*” value stood at 58%, the pEC50 came to 5.94 and the EC50 was 1.15 µM.

For the compound `Cc1ccnc(Nc2nn(C)c3c2sc2nc(C)c(Cl)c(C)c23)n1` [Compound 28, 7-chloro-1,6,8-trimethyl-N-(4-methylpyrimidin-2-yl)-1H-pyrazolo[3′,4′:4,5]thieno[2,3-b]pyridin-3-amine], the “Emax (%)*” value was determined as 36%, the pEC50 is listed as below 5.00 and the EC50 is above 10 µM.

Regarding `Cc1cc(C)c2c(n1)sc1c(NC3CCOCC3)n[nH]c12` [Compound 13, 6,8-dimethyl-N-(tetrahydro-2H-pyran-4-yl)-1H-pyrazolo[3′,4′:4,5]thieno[2,3-b]pyridin-3-amine], the “Emax (%)*” value was found to be 37%, the pEC50 came out at 5.14 and the EC50 was 7.32 µM.

For `Cc1cc(C)c2c(n1)sc1c(NCc3ccc(S(C)(=O)=O)cc3)nn(CCO)c12` [Compound 116, 2-(6,8-dimethyl-3-((4-(methylsulfonyl)benzyl)amino)-1H-pyrazolo[3′,4′:4,5]thieno[2,3-b]pyridin-1-yl)ethanol], the “Emax (%)*” value is on record as 73%, the pEC50 was determined as 7.24 and the EC50 is 0.057 µM.

Regarding `COc1ccc(CNc2nn(C)c3c2sc2nc(C)ccc23)cc1` [Compound 55, N-(4-methoxybenzyl)-1,6-dimethyl-1H-pyrazolo[3′,4′:4,5]thieno[2,3-b]pyridin-3-amine], the “Emax (%)*” value was determined as 63%, the negative-log EC50 (pEC50) is 6.02 and the EC50 was 0.96 µM.

As for `Cc1ccnc2sc3c(NCC4CC4)nn(C)c3c12` [Compound 69, N-(cyclopropylmethyl)-1,8-dimethyl-1H-pyrazolo[3′,4′:4,5]thieno[2,3-b]pyridin-3-amine], the “Emax (%)*” value was 77%, the negative logarithm of the EC50 (pEC50) is 5.89 and the EC50 was 1.3 µM.

`Cc1cc(C)c2c(n1)sc1c(NCc3ccncc3)nn(C)c12` [Compound 42, 1,6,8-trimethyl-N-(pyridin-4-ylmethyl)-1H-pyrazolo[3′,4′:4,5]thieno[2,3-b]pyridin-3-amine]: the “Emax (%)*” value was 93%, the pEC50 stood at 6.82 and the EC50 is 0.15 µM.

For `Cc1ccc2c(n1)sc1c(NCC3CC3)nn(C)c12` [Compound 51, N-(cyclopropylmethyl)-1,6-dimethyl-1H-pyrazolo[3′,4′:4,5]thieno[2,3-b]pyridin-3-amine], the “Emax (%)*” value amounted to 73%, the pEC50 is recorded as 5.89 and the EC50 is 1.3 µM.

`Cc1cc(C)c2c(n1)sc1c(NCc3ccco3)n[nH]c12` [Compound 35, N-(furan-2-ylmethyl)-6,8-dimethyl-1H-pyrazolo[3′,4′:4,5]thieno[2,3-b]pyridin-3-amine]: the “Emax (%)*” value was found to be 80%, the pEC50 is 5.92 and the EC50 was 1.2 µM.

Take `Cc1cc(C)c2c(n1)sc1c(NCc3ccc(F)c(F)c3)nn(C)c12` [Compound 60, N-(3,4-difluorobenzyl)-1,6,8-trimethyl-1H-pyrazolo[3′,4′:4,5]thieno[2,3-b]pyridin-3-amine]: the “Emax (%)*” value came to 63%, the pEC50 is below 5.00 and the EC50 is above 10 µM.

For `Cc1cc(C)c2c(n1)sc1c(NCc3ccsc3)nn(C)c12` [Compound 80, 1,6,8-trimethyl-N-(thiophen-3-ylmethyl)-1H-pyrazolo[3′,4′:4,5]thieno[2,3-b]pyridin-3-amine], the “Emax (%)*” value stood at 71%, the pEC50 was 7.21 and the EC50 is 0.062 µM.

In the case of `Cc1ccc2c(n1)sc1c(NCCC(C)C)nn(C)c12` [Compound 54, N-isopentyl-1,6-dimethyl-1H-pyrazolo[3′,4′:4,5]thieno[2,3-b]pyridin-3-amine], the “Emax (%)*” value worked out at 71%, the pEC50 was determined as 6.06 and the EC50 was 0.88 µM.

For `COc1ccc(CNc2n[nH]c3c2sc2nc(C)ccc23)cc1` [Compound 72, N-(4-methoxybenzyl)-6-methyl-1H-pyrazolo[3′,4′:4,5]thieno[2,3-b]pyridin-3-amine], the “Emax (%)*” value came out at 59%, the pEC50 is given as 5.74 and the EC50 was 1.8 µM.

For `Cc1cc(C)c2c(n1)sc1c(NCC3CCCO3)nn(C)c12` (centres unmarked) [Compound 83, 1,6,8-trimethyl-N-((tetrahydrofuran-2-yl)methyl)-1H-pyrazolo[3′,4′:4,5]thieno[2,3-b]pyridin-3-amine], the “Emax (%)*” value is given as 52%, the pEC50 was 6.02 and the EC50 was 0.96 µM.

For `COC(=O)Cn1nc(NCc2ccc(S(C)(=O)=O)cc2)c2sc3nc(C)cc(C)c3c21` [Compound 117, methyl 2-(6,8-dimethyl-3-((4-(methylsulfonyl)benzyl)amino)-1H-pyrazolo[3′,4′:4,5]thieno[2,3-b]pyridin-1-yl)acetate], the “Emax (%)*” value was determined as 40%, the negative-log EC50 (pEC50) is below 5.00 and the concentration giving a half-maximal response (EC50) was above 10 µM.

For `Cc1nc2sc3c(NCc4ccc(F)cc4)nn(C)c3c2c(C)c1Cl` [Compound 22, 7-chloro-N-(4-fluorobenzyl)-1,6,8-trimethyl-1H-pyrazolo[3′,4′:4,5]thieno[2,3-b]pyridin-3-amine], the “Emax (%)*” value is reported as 57%, the pEC50 is reported as below 5.00 and the concentration for a half-maximal effect (EC50) is above 10 µM.

`COc1ccc(CNc2nn(C)c3c2sc2nc(C)c(Cl)c(C)c23)cc1` [Compound 18, 7-chloro-N-(4-methoxybenzyl)-1,6,8-trimethyl-1H-pyrazolo[3′,4′:4,5]thieno[2,3-b]pyridin-3-amine]: the “Emax (%)*” value is given as 51%, the pEC50 is recorded as below 5.00 and the EC50 is above 10 µM.

On to `Cc1ccc2c(n1)sc1c(NC(C)C)n[nH]c12` [Compound 45, N-isopropyl-6-methyl-1H-pyrazolo[3′,4′:4,5]thieno[2,3-b]pyridin-3-amine], for which the “Emax (%)*” value is given as 37%, the pEC50 is below 5.00 and the EC50 was above 10 µM.

On to `Cc1cc(C)c2c(n1)sc1c(NCCC(C)C)n[nH]c12` [Compound 3, N-isopentyl-6,8-dimethyl-1H-pyrazolo[3′,4′:4,5]thieno[2,3-b]pyridin-3-amine], for which the “Emax (%)*” value is recorded as 46%, the pEC50 is recorded as 5.91 and the EC50 was 1.24 µM.

Turning to `Cc1ccc2c(n1)sc1c(NC(=O)c3ccccc3)n[nH]c12` [Compound 150, N-(6-methyl-1H-pyrazolo[3′,4′:4,5]thieno[2,3-b]pyridin-3-yl)benzamide], the pEC50 is below 5.00 and the EC50 was above 10 µM.

For `Cc1nc2sc3c(NCc4cccs4)nn(C)c3c2c(C)c1Cl` [Compound 26, 7-chloro-1,6,8-trimethyl-N-(thiophen-2-ylmethyl)-1H-pyrazolo[3′,4′:4,5]thieno[2,3-b]pyridin-3-amine], the “Emax (%)*” value is 42%, the negative logarithm of the EC50 (pEC50) was below 5.00 and the EC50 is above 10 µM.

For `COCCn1nc(N)c2sc3nc(C)cc(C)c3c21` [Compound 165, 1-(2-methoxyethyl)-6,8-dimethyl-1H-pyrazolo[3′,4′:4,5]thieno[2,3-b]pyridin-3-amine], the pEC50 is below 5.00 and the EC50 was above 10 µM.

As for `Cc1cc(C)c2c(n1)sc1c(NC3CCSC3)nn(C)c12` (centres unmarked) [Compound 73, 1,6,8-trimethyl-N-(tetrahydrothiophen-3-yl)-1H-pyrazolo[3′,4′:4,5]thieno[2,3-b]pyridin-3-amine], the “Emax (%)*” value is 84%, the pEC50 is 7.06 and the EC50 is 0.087 µM.
